Assay results reported in ChEMBL document CHEMBL4364252, “Tetrahydropyrazolo[1,5-a]pyridine-fused steroids and their in vitro biological evaluation in prostate cancer” (2019).
The source made the active and inactive calls. No cut-off for these calls is given here.

Columns and labels:
CWR22R [1] = experiment: Antiproliferative activity against human AR-positive 22Rv1 cells harboring ARE14 construct assessed as growth inhibition measured after 72 hrs by resazurin dye based fluorescence assay; assay type: functional; conditions: 22Rv1, 72 h
VCaP [2] = experiment: Antiproliferative activity against AR-positive human VCaP cells assessed as growth inhibition measured after 72 hrs by resazurin dye based fluorescence assay; assay type: functional
PC-3 [3] = experiment: Antiproliferative activity against AR-negative human PC3 cells assessed as growth inhibition measured after 72 hrs by resazurin dye based fluorescence assay; assay type: functional; conditions: PC-3, 72 h
PC-3 [4] = experiment: Antiproliferative activity against AR-negative human PC3 cells assessed as cell viability at 40 uM measured after 72 hrs by resazurin dye based fluorescence assay relative to control; assay type: functional; conditions: PC-3, 72 h, read-out: Activity
[5] = molecular target: T1, Androgen receptor (Homo sapiens) (UniProt P10275); conditions: at 10 µM
T1 sequence (whole entry): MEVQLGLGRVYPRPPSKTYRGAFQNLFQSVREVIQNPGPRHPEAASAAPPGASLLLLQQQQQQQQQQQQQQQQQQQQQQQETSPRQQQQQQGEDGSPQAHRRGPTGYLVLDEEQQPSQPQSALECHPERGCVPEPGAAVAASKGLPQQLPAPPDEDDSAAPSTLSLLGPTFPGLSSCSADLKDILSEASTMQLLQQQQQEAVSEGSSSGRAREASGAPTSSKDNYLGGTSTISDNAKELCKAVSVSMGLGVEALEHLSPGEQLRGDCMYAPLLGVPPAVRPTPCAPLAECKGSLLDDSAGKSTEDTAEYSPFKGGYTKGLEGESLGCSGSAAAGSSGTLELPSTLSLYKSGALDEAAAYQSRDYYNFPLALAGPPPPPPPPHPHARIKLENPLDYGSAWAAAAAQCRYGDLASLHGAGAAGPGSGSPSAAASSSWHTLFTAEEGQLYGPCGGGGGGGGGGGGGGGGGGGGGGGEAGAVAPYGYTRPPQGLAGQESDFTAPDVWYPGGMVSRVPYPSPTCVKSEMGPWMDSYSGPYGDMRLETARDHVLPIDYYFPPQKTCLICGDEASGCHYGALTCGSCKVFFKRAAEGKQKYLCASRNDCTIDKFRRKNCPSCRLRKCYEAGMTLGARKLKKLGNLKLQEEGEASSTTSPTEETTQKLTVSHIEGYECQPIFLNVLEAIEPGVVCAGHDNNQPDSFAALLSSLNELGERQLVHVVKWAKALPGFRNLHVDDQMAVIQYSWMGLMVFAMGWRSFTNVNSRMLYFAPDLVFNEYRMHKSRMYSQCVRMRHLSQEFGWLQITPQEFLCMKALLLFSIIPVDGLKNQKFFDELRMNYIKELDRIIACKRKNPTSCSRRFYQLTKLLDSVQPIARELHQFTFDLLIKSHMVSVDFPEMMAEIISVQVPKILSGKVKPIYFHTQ
Description: Inhibition of AR transcriptional activity in AR-positive human 22Rv1 cells harboring ARE14 construct assessed as suppression of NKX3.1 expression at 10 uM after 24 hrs by immunoblot analysis

CWR22R [6] = experiment: Effect on AR-V7 variant protein expression in AR-positive human 22Rv1 cells harboring ARE14 construct at 10 uM after 24 hrs by immunoblot analysis; assay type: functional, cell-based
[7] = molecular target: T1, Androgen receptor (Homo sapiens); conditions: at 10 µM; remark: listed apart in the source
Description: Inhibition of AR transcriptional activity in AR-positive human 22Rv1 cells harboring ARE14 construct assessed as suppression of PSA expression at 10 uM after 24 hrs by immunoblot analysis

[8] = molecular target: T1, Androgen receptor (Homo sapiens); conditions: at 10 µM; remark: listed apart in the source
Description: Inhibition of R1881 induced-AR transcriptional activity in AR-positive human 22Rv1 cells harboring ARE14 construct at 10 uM after 24 hrs by luciferase assay

CWR22R [9] = experiment: Antiproliferative activity against AR-positive human 22Rv1 cells harboring ARE14 construct assessed as cell viability at 40 uM measured after 72 hrs by resazurin dye based fluorescence assay relative to control; assay type: functional; conditions: 22Rv1, 72 h, read-out: Activity
VCaP [10] = experiment: Antiproliferative activity against AR-positive human VCaP cells assessed as cell viability at 40 uM measured after 72 hrs by resazurin dye based fluorescence assay relative to control; assay type: functional; conditions: read-out: Activity
LNCaP [11] = experiment: Antiproliferative activity against AR-positive human LNCAP cells assessed as growth inhibition measured after 72 hrs by resazurin dye based fluorescence assay; assay type: functional
LAPC4 [12] = experiment: Antiproliferative activity against AR-positive human LAPC4 cells assessed as cell viability at 40 uM measured after 72 hrs by resazurin dye based fluorescence assay relative to control; assay type: functional; conditions: LAPC4, 72 h, read-out: Activity
LAPC4 [13] = experiment: Antiproliferative activity against AR-positive human LAPC4 cells assessed as growth inhibition measured after 72 hrs by resazurin dye based fluorescence assay; assay type: functional; conditions: LAPC4, 72 h
LNCaP [14] = experiment: Antiproliferative activity against AR-positive human LNCAP cells assessed as cell viability at 40 uM measured after 72 hrs by resazurin dye based fluorescence assay relative to control; assay type: functional; conditions: read-out: Activity

Row | SMILES | GI50 (VCaP [2]) | GI50 (PC-3 [3]) | inhibition [5] | inhibition [7] | inhibition [8] | GI50 (LNCaP [11]) | GI50 (CWR22R [1]) | viability at 40 µM (PC-3 [4]) | Activity (CWR22R [6]) | viability at 40 µM (CWR22R [9]) | viability at 40 µM (VCaP [10]) | viability at 40 µM (LAPC4 [12]) | GI50 (LAPC4 [13]) | viability at 40 µM (LNCaP [14])
1 | CC(=O)[C@@]12Cc3c(C(=O)O)cnn3C[C@@H]1C[C@H]1[C@@H]3CCC4=CC(=O)CC[C@]4(C)[C@H]3CC[C@@]12C | > 40 µM | > 40 µM | inactive | inactive | inactive | – | > 40 µM | > 100% | inactive | 92.4% | 95.7% | – | – | –
2 | C[C@@H](O)[C@@]12Cc3c(CO)c(CO)nn3C[C@@H]1C[C@H]1[C@@H]3CC=C4C[C@@H](O)CC[C@]4(C)[C@H]3CC[C@@]12C | > 40 µM | > 40 µM | Active | inactive | inactive | > 40 µM | > 40 µM | > 100% | inactive | 95.8% | 96.3% | 97.5% | > 40 µM | 92.8%
3 | COC(=O)c1cnn2c1C[C@]1(C(C)=O)[C@@H](C[C@H]3[C@@H]4CC=C5C[C@@H](O)CC[C@]5(C)[C@H]4CC[C@@]31C)C2 | > 40 µM | > 40 µM | Active | Active | inactive | – | > 40 µM | 89.6% | inactive | 78.5% | 90.4% | – | – | –
4 | C[C@@H](O)[C@@]12Cc3c(CO)c(CO)nn3[C@H](Cc3ccccc3)[C@@H]1C[C@H]1[C@@H]3CC=C4C[C@@H](O)CC[C@]4(C)[C@H]3CC[C@@]12C | > 40 µM | > 40 µM | – | Active | inactive | > 40 µM | > 40 µM | > 100% | inactive | 55.8% | 43% | 85.9% | > 40 µM | 89.7%
5 | CNC(=O)c1ccc(N2C(=S)N(c3ccc(C#N)c(C(F)(F)F)c3)C(=O)C2(C)C)cc1F [ENZALUTAMIDE] | – | – | – | – | – | – | – | 88.7% | – | 84% | 61.2% | 80.3% | – | 94.2%
6 | COC(=O)c1nn2c(c1C(=O)OC)C[C@]1(C(C)=O)[C@@H](C[C@H]3[C@@H]4CCC5=CC(=O)CC[C@]5(C)[C@H]4CC[C@@]31C)[C@H]2Cc1ccccc1 | > 40 µM | > 40 µM | – | Active | inactive | > 40 µM | > 40 µM | > 100% | inactive | 63.3% | 80.7% | 97.2% | > 40 µM | 80.6%
7 | C[C@@H](O)[C@@]12Cc3c(CO)cnn3C[C@@H]1C[C@H]1[C@@H]3CC=C4C[C@@H](O)CC[C@]4(C)[C@H]3CC[C@@]12C | > 40 µM | > 40 µM | – | – | inactive | > 40 µM | > 40 µM | > 100% | inactive | 96.3% | 96.7% | 92.2% | > 40 µM | 82.8%

Continued, in another order:

Row | GI50 (VCaP [2]) | GI50 (PC-3 [3]) | inhibition [5] | inhibition [7] | inhibition [8] | GI50 (LNCaP [11]) | SMILES | GI50 (CWR22R [1]) | viability at 40 µM (PC-3 [4]) | Activity (CWR22R [6]) | viability at 40 µM (CWR22R [9]) | viability at 40 µM (VCaP [10]) | viability at 40 µM (LAPC4 [12]) | GI50 (LAPC4 [13]) | viability at 40 µM (LNCaP [14])
8 | > 40 µM | > 40 µM | Active | inactive | inactive | – | COC(=O)c1nn2c(c1C(=O)OC)C[C@]1(C(C)=O)[C@@H](C[C@H]3[C@@H]4CCC5=CC(=O)CC[C@]5(C)[C@H]4CC[C@@]31C)C2 | > 40 µM | 94% | inactive | 73.5% | 80.3% | – | – | –
9 | > 40 µM | > 40 µM | inactive | inactive | inactive | > 40 µM | COC(=O)c1nn2c(c1C(=O)OC)C[C@]1(C(C)=O)[C@@H](C[C@H]3[C@@H]4CC=C5C[C@@H](O)CC[C@]5(C)[C@H]4CC[C@@]31C)[C@H]2Cc1ccccc1 | > 40 µM | 64.7% | inactive | 28.4% | 57% | 81.3% | > 40 µM | 83.5%
10 | > 40 µM | > 40 µM | – | Active | inactive | – | COC(=O)c1cnn2c1C[C@]1(C(C)=O)[C@@H](C[C@H]3[C@@H]4CC=C5C[C@@H](OC(C)=O)CC[C@]5(C)[C@H]4CC[C@@]31C)C2 | > 40 µM | > 100% | inactive | 83.3% | 84.9% | – | – | –
11 | > 40 µM | > 40 µM | inactive | inactive | inactive | – | COC(=O)c1nn2c(c1C(=O)OC)C[C@]1(C(C)=O)[C@@H](C[C@H]3[C@@H]4CC=C5C[C@@H](O)CC[C@]5(C)[C@H]4CC[C@@]31C)C2 | > 40 µM | 71.7% | inactive | 88% | > 100% | – | – | –
12 | > 40 µM | > 40 µM | inactive | inactive | inactive | > 40 µM | COC(=O)c1nn2c(c1C(=O)OC)C[C@]1(C(C)=O)[C@@H](C[C@H]3[C@@H]4CC=C5C[C@@H](OC(C)=O)CC[C@]5(C)[C@H]4CC[C@@]31C)[C@H]2Cc1ccccc1 | > 40 µM | > 100% | inactive | 15% | 85.9% | > 100% | > 40 µM | 89.7%
